Results on four compounds are retold here after patent US20100056524A1, “Compound” (priority 2008, published 2010).

Where a name gives a salt, the structure may show the parent alone. Read-outs that look alike come from different tables or passages of the source.

Assay type in all cases: biochemical
One test has as its target T1, CHK2 (Homo sapiens, UniProt O96017).
T1 construct: The following proteins were expressed in E. coli: —CHK2[5-543]; GST; made in house; host or cells: E. coli
The test can be described thus: CHK2 protein kinase assay. Conditions: for remaining activity at 10 µM: 10 μM compound; for residual kinase activity CHK2: 1 μm compound; for remaining activity at 1 µM: 1 μM compound. The text has this: (§1) All protein kinases were of human origin and encoded full length proteins, unless indicated otherwise. They were either expressed as glutathione S-transferase (GST) fusion proteins in Escherichia Coli or as hexahistidine (His6)-tagged proteins in insect Sf21 cells. GST fusion proteins were purified by affinity chromatography on glutathione-Sepharose, and His6-tagged proteins on nickel/nitriloacetate-agarose. The procedures for expressing some of the protein kinases used herein have been detailed previously.^8,9 The following sections outline the DNA vectors synthesised and the procedures used to express and purifying protein kinases that have not been reported previously.
The following proteins were expressed in E. coli: —CHK2[5-543], cyclin-dependent protein kinase 2 (CDK2), MAP kinase-interacting kinase 2 (MNK2), extra-cellular signal-regulated kinase 1 (ERK1).
(§2) All assays (25.5 μl) were carried out at room temperature (21° C.) and were linear with respect to time and enzyme concentration under the conditions used. Assays were performed for 30 min using Multidrop Micro reagent dispensers (Thermo Electron Corporation, Waltham, Mass. 02454, USA) in a 96-well format. The concentration of magnesium acetate in the assays was 10 mM and the [γ-33P] ATP (800 cpm/pmol) was used at 5, 20 or 50 μM as indicated, in order to be at or below the Km for ATP for each enzyme. Protein kinases assayed at 5 μM ATP were: —ERK1, ERK8, PKBα, MARK3, Aurora C. Protein kinases assayed at 20 μM ATP were: —JNK1, PDK1, CHK1, CHK2, CDK2 and Aurora B. Protein kinases assayed at 50 μM ATP were: —MNK2, IKKepsilon and TBK1.
(§3) The assays were initiated with MgATP, stopped by addition of 5 μl of 0.5 M orthophosphoric acid and spotted on to P81 filterplates using a unifilter harvester (PerkinElmer, Boston, Mass. 02118, USA). The IC50 values of inhibitors were determined after carrying out assays at 10 different concentrations of each compound.
(§4) Unless stated otherwise, enzymes were diluted in 50 mM Tris/HCl pH 7.5, 0.1 mM EGTA, 1 mg/ml BSA, 0.1% (v/v) 2-mercaptoethanol and assayed in 50 mM Tris/HCl pH 7.5, 0.1 mM EGTA, 0.1% (v/v) 2-mercaptoethanol.

A further test has as its target T2, IKKb (Homo sapiens, UniProt O14920).
T2 construct: All protein kinases were of human origin and encoded full length proteins, unless indicated otherwise; made in house
T2 sequence (O14920 1-756): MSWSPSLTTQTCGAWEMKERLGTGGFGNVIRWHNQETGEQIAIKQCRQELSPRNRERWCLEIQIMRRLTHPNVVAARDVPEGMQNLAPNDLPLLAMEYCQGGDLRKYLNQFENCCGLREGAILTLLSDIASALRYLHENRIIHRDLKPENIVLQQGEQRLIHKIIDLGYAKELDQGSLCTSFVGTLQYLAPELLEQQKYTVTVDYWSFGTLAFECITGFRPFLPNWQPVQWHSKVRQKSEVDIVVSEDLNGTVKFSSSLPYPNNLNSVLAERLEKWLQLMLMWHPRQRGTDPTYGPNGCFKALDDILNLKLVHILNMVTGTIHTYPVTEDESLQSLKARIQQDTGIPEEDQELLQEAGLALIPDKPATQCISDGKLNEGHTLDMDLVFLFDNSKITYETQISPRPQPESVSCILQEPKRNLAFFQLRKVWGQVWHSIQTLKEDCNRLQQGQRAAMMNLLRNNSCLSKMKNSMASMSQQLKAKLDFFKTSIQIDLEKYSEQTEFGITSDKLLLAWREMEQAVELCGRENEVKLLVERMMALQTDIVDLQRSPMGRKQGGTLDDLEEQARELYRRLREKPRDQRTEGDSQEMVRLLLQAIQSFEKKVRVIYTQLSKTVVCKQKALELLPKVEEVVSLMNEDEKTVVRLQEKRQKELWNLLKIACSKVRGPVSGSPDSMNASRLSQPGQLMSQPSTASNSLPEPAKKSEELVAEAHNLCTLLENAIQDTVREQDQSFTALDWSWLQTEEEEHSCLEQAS
The test can be described thus: IKKb protein kinase assay. The note with it: for remaining activity at 10 µM: 10 μM compound; for residual kinase activity IKKb: 1 μm compound; for remaining activity at 1 µM: 1 μM compound.
Description: as §1, §2, §3, §4

In another test the target is T3, SYK (Homo sapiens, UniProt P43405).
T3 construct: All protein kinases were of human origin and encoded full length proteins, unless indicated otherwise; made in house
The test can be described thus: SYK protein kinase assay. Conditions: for remaining activity at 10 µM: 10 μM compound; for residual kinase activity SYK: 1 μm compound; for remaining activity at 1 µM: 1 μM compound.
Description: as §1, §2, §3, §4

The target in a further test is T4, BRSK2 (Homo sapiens, UniProt Q8IWQ3).
T4 construct: All protein kinases were of human origin and encoded full length proteins, unless indicated otherwise; made in house
T4 sequence (Q8IWQ3 1-736): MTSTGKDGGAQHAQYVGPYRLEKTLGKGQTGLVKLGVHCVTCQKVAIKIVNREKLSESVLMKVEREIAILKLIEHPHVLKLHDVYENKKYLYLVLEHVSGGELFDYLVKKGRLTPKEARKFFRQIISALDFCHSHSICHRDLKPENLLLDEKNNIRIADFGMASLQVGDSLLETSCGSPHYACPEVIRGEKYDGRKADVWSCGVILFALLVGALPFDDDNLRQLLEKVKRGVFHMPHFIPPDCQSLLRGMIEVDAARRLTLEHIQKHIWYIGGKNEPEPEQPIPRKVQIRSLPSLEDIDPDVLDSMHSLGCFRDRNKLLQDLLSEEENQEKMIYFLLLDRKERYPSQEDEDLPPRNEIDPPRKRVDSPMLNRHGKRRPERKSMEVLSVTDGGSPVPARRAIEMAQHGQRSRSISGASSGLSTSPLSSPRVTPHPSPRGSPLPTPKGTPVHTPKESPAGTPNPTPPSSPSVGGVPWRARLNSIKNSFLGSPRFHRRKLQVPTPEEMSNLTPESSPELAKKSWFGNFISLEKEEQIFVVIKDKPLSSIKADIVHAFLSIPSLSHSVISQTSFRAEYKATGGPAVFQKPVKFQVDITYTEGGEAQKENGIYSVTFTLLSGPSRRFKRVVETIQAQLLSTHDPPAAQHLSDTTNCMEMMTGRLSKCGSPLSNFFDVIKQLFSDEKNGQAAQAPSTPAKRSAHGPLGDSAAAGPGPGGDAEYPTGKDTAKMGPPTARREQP
The test can be described thus: BRSK2 protein kinase assay. The note with it: for remaining activity at 10 µM: 10 μM compound; for residual kinase activity BRSK2: 1 μm compound; for remaining activity at 1 µM: 1 μM compound.
Description: as §1, §2, §3, §4

[1] abbreviates: read-out: residual kinase activity CHK2.
The mark [2] stands for this setting: read-out: residual kinase activity IKKb.
The mark [3] stands for this setting: read-out: residual kinase activity SYK.
Where [4] appears, read: read-out: residual kinase activity BRSK2.
Setting [5] is: CHK2, 20 μM ATP, read-out: residual kinase activity.
[6] abbreviates: IKKb, read-out: residual kinase activity.
[7] abbreviates: SYK, read-out: residual kinase activity.
Where [8] appears, read: BRSK2, read-out: residual kinase activity.

T1 sequence (O96017 5-543): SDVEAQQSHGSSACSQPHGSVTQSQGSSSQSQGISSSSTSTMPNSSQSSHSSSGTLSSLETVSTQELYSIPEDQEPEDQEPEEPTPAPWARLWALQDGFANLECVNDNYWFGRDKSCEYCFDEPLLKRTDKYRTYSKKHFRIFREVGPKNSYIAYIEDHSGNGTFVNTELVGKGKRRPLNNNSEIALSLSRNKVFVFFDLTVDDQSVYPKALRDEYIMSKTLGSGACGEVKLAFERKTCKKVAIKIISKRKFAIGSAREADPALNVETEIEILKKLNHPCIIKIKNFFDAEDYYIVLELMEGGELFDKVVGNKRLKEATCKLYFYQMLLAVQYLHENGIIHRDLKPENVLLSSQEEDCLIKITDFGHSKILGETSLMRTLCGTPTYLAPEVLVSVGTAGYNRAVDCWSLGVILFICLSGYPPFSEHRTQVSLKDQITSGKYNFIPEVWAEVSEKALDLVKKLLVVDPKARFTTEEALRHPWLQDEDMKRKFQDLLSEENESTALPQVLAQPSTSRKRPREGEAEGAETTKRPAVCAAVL

Consider `O=C(NCCCNc1nc(Nc2cccc(F)c2)ncc1Br)C1CCC1` [Compound A, cyclobutanecarboxylic acid {3-[5-bromo-2-(3-fluoro-phenylamino)-pyrimidin-4-ylamino]-propyl}-amide, reference compound], for which the remaining activity at 10 µM on CHK2 (setting [1]) amounted to 12%; on IKKb (setting [2]) it was 66%; at SYK (setting [3]), 4%; at BRSK2 (setting [4]), 6%. Moreover, the “residual kinase activity CHK2” value on CHK2 amounted to 13%. In addition, the “residual kinase activity IKKb” value at IKKb worked out at 93%. On SYK, the “residual kinase activity SYK” value came out at 25%. The “residual kinase activity BRSK2” value at BRSK2 stood at 23%.
Regarding `O=C(NCCCNc1nc(Nc2cccc(N3CCCC3=O)c2)ncc1C1CC1)c1cccs1` [Example 47, Thiophene-2-carboxylic acid (3-{5-cyclopropyl-2-[3-(2-oxo-pyrrolidin-1-yl)-phenylamino]-pyrimidin-4-ylamino}-propyl)-amide. Hydrochloride salt], the remaining activity at 1 µM on CHK2 (setting [5]) is 71%; on IKKb (setting [6]), 91%; on SYK (setting [7]) it was 82%; on BRSK2 (setting [8]), 91%. For the same compound, the remaining activity at 10 µM stood at 28% on CHK2 (setting [5]), 86% at IKKb (setting [6]), 49% on SYK (setting [7]) and 36% on BRSK2 (setting [8]).
For the compound `O=C(NCCCNc1nc(Nc2cccnc2)ncc1C1CC1)c1cccs1` [Example 50, Thiophene-2-carboxylic acid {3-[5-cyclopropyl-2-(pyridin-3-ylamino)-pyrimidin-4-ylamino]-propyl}-amide], the remaining activity at 1 µM came out at 52% on CHK2 (setting [5]), 90% at IKKb (setting [6]), 83% at SYK (setting [7]) and 87% at BRSK2 (setting [8]). Also, the remaining activity at 10 µM at CHK2 (setting [5]) came to 16%; at IKKb (setting [6]), 88%; on SYK (setting [7]) it was 60%; on BRSK2 (setting [8]), 42%.
As for `O=C(NCCCNc1nc(Nc2cccc(F)c2)ncc1C1CC1)C1CCC1` [Example 23, Cyclobutanecarboxylic acid {3-[5-cyclopropyl-2-(3-fluoro-phenylamino)-pyrimidin-4-ylamino]-propyl}-amide], the remaining activity at 10 µM on CHK2 (setting [1]) turned out to be 11%; on CHK2 (setting [5]), 11%; at IKKb (setting [2]), 80%; at IKKb (setting [6]) it was 80%; at SYK (setting [3]), 46%; at SYK (setting [7]) it was 46%. Moreover, the remaining activity at 10 µM at BRSK2 (setting [4]) and at BRSK2 (setting [8]) was 26% throughout. The “residual kinase activity CHK2” value on CHK2 is listed as 50%. Also, the remaining activity at 1 µM was determined as 50% on CHK2 (setting [5]), 75% on IKKb (setting [6]), 87% at SYK (setting [7]) and 64% on BRSK2 (setting [8]). The “residual kinase activity IKKb” value at IKKb is on record as 75%. Moreover, on SYK, the “residual kinase activity SYK” value is recorded as 87%. Moreover, the “residual kinase activity BRSK2” value at BRSK2 turned out to be 64%.
